Reference: ChEMBL document CHEMBL3352057, “Novel fluorinated pyrrolo[1,2-a]pyrazine-2,6-dione derivatives: synthesis and anticonvulsant evaluation in animal models of epilepsy” (Bioorg Med Chem, 2014)
Active and inactive are the calls of the source. No cut-off for these calls is given here.

Assays:
[1] = system: Mus musculus; test: Neurotoxicity in albino CF1 mouse at 100 mg/kg, ip measured after 0.5 hr; format: toxicity, organism-based; set-up: dose 100 mg/kg, route intraperitoneal; details: in vivo
[2] = system: Mus musculus; test: Anticonvulsant activity in albino CF1 mouse assessed as protection against maximal electroshock-induced seizures at 100 mg/kg, ip measured after 0.5 hr; format: functional, organism-based; set-up: dose 100 mg/kg
[3] = system: Mus musculus; test: Neurotoxicity in 32 mA current-induced seizure albino CF1 mouse model at 100 mg/kg, ip measured after 0.5 hr; format: toxicity, organism-based; set-up: dose 100 mg/kg, route intraperitoneal; details: in vivo
[4] = system: Mus musculus; test: Neurotoxicity in albino CF1 mouse at 100 mg/kg, ip measured after 4 hrs; format: toxicity, organism-based; set-up: dose 100 mg/kg, route intraperitoneal; details: in vivo
[5] = system: Mus musculus; test: Neurotoxicity in 32 mA current-induced seizure albino CF1 mouse model at 100 mg/kg, ip measured after 4 hrs; format: toxicity, organism-based; set-up: dose 100 mg/kg, route intraperitoneal; details: in vivo
[6] = system: Mus musculus; test: Anticonvulsant activity in albino CF1 mouse assessed as protection against maximal electroshock-induced seizures at 100 mg/kg, ip measured after 1 hr; format: functional, organism-based; set-up: dose 100 mg/kg
[7] = system: Mus musculus; test: Neurotoxicity in 32 mA current-induced seizure albino CF1 mouse model at 100 mg/kg, ip measured after 1 hr; format: toxicity, organism-based; set-up: dose 100 mg/kg, route intraperitoneal; details: in vivo
[8] = system: Mus musculus; test: Neurotoxicity in 32 mA current-induced seizure albino CF1 mouse model at 100 mg/kg, ip measured after 2 hrs; format: toxicity, organism-based; set-up: dose 100 mg/kg, route intraperitoneal; details: in vivo
[9] = system: Mus musculus; test: Anticonvulsant activity in albino CF1 mouse assessed as protection against subcutaneous metrazol-induced seizures at 100 mg/kg, ip measured after 1 hr; format: functional, organism-based; set-up: dose 100 mg/kg
[10] = system: Mus musculus; test: Anticonvulsant activity in albino CF1 mouse assessed as protection against 32 mA current-induced seizures at 100 mg/kg, ip measured after 1 hr; format: functional, organism-based; set-up: dose 100 mg/kg
[11] = system: Mus musculus; test: Anticonvulsant activity in albino CF1 mouse assessed as protection against 32 mA current-induced seizures at 100 mg/kg, ip measured after 4 hrs; format: functional, organism-based; set-up: dose 100 mg/kg
[12] = system: Rattus norvegicus; test: Anticonvulsant activity in pilocarpine-induced status prevention Sprague-Dawley rat model assessed as weight change 24 hrs post-first stage 3 seizure of non-protected rat at 300 mg/kg, ip measured after 0.5 hr; format: functional; details: route intraperitoneal
[13] = system: Mus musculus; test: Anticonvulsant activity in albino CF1 mouse assessed as protection against maximal electroshock-induced seizures at 100 mg/kg, ip measured after 4 hrs; format: functional, organism-based; set-up: dose 100 mg/kg
[14] = system: Mus musculus; test: Neurotoxicity in albino CF1 mouse at 100 mg/kg, ip measured after 0.25 hr; format: toxicity, organism-based; set-up: dose 100 mg/kg, route intraperitoneal; details: in vivo
[15] = system: Mus musculus; test: Neurotoxicity in albino CF1 mouse at 100 mg/kg, ip measured after 1 hr; format: toxicity, organism-based; set-up: dose 100 mg/kg, route intraperitoneal; details: in vivo
[16] = system: Mus musculus; test: Anticonvulsant activity in albino CF1 mouse assessed as protection against 32 mA current-induced seizures at 100 mg/kg, ip measured after 0.5 hr; format: functional, organism-based; set-up: dose 100 mg/kg
[17] = system: Mus musculus; test: Anticonvulsant activity in albino CF1 mouse assessed as protection against maximal electroshock-induced seizures at 100 mg/kg, ip measured after 0.25 hr; format: functional, organism-based; set-up: dose 100 mg/kg
[18] = system: Mus musculus; test: Anticonvulsant activity in albino CF1 mouse assessed as protection against 32 mA current-induced seizures at 100 mg/kg, ip measured after 2 hrs; format: functional, organism-based; set-up: dose 100 mg/kg
[19] = system: Rattus norvegicus; test: Anticonvulsant activity in pilocarpine-induced status prevention Sprague-Dawley rat model assessed as weight change 24 hrs post-first stage 3 seizure of protected rat at 300 mg/kg, ip measured after 0.5 hr; format: functional; details: route intraperitoneal
[20] = system: Mus musculus; test: Anticonvulsant activity in albino CF1 mouse assessed as protection against subcutaneous metrazol-induced seizures at 100 mg/kg, ip measured after 0.25 hr; format: functional, organism-based; set-up: dose 100 mg/kg
[21] = system: Mus musculus; test: Anticonvulsant activity in albino CF1 mouse assessed as protection against subcutaneous metrazol-induced seizures at 100 mg/kg, ip measured after 4 hrs; format: functional, organism-based; set-up: dose 100 mg/kg
[22] = system: Mus musculus; test: Anticonvulsant activity in albino CF1 mouse assessed as protection against 32 mA current-induced seizures at 100 mg/kg, ip measured after 0.25 hr; format: functional, organism-based; set-up: dose 100 mg/kg
[23] = system: Mus musculus; test: Anticonvulsant activity in albino CF1 mouse assessed as protection against subcutaneous metrazol-induced seizures at 100 mg/kg, ip measured after 0.5 hr; format: functional, organism-based; set-up: dose 100 mg/kg
[24] = system: Mus musculus; test: Neurotoxicity in 32 mA current-induced seizure albino CF1 mouse model at 100 mg/kg, ip measured after 0.25 hr; format: toxicity, organism-based; set-up: dose 100 mg/kg, route intraperitoneal; details: in vivo

O=C1NC(=O)[C@@H]2CCCN2[C@H]1c1ccc(F)cc1
Activity [1]: Non-toxic
Activity [2]: inactive
Activity [3]: Non-toxic
Activity [4]: Non-toxic
Activity [5]: Non-toxic
Activity [6]: Active
Activity [7]: Non-toxic
Activity [8]: Non-toxic
Activity [9]: inactive
Activity [10]: inactive
Activity [11]: inactive
Activity [12]: -30 g
Activity [13]: inactive
Activity [14]: Non-toxic
Activity [15]: Non-toxic
Activity [16]: inactive
Activity [17]: Active
Activity [18]: inactive
Activity [19]: -12 g
Activity [20]: Active
Activity [21]: inactive
Activity [22]: Active
Activity [23]: inactive
Activity [24]: Non-toxic
